“And” between values parts separate entries of the source, which are not always exact repeats. Equal values may be shown once. Marks after values point to notes of the source that are not given here.
Legend:
human MTAP [1] = target: T1, human MTAP (Homo sapiens, UniProt Q13126); experiment: Measurement of kinetic isotope effects on arsenolysis of MTA; assay type: biochemical; conditions: pH 7.5, arsenolysis of MTA; for KIE (experimental): corrected to 0% substrate depletion; for Intrinsic KIEs: observed KIE corrected for forward commitment
T1 construct: His6 (N); made in house; host or cells: E. coli (pQE32 vector)
T1 sequence (Q13126 1-283): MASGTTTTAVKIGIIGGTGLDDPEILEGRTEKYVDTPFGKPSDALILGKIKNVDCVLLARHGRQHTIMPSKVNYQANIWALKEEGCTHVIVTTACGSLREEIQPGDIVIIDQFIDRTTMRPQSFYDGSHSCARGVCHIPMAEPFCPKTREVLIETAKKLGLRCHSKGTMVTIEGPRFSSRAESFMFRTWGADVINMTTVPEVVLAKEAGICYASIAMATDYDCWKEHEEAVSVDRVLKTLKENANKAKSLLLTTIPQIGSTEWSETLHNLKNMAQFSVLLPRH
Description: Measurement of kinetic isotope effects. The KIEs were measured by mixing ^3H and ^14C labeled substrates with ^3H:^14C in 4:1 ratio. […] After 20-30% completion of the reaction, 750 μL of the reaction was resolved on charcoal-Sepharose (acid-washed powdered charcoal and Sepharose in 1:4 ratio made into a slurry in 1 mM 5-methylthioribose (MTR) and settled in Pasteur pipettes). The remainder of the reaction mixture was allowed to react to completion and then applied to the column. Columns were washed with 2 volumes of 1 mM MTR and radioactive methylthioribose was eluted with 6 volumes of 15 mM MTR containing 50% ethanol. Each 1.0 mL of eluate was mixed with 9.0 mL scintillation fluid and counted for at least 3 cycles at 10 minutes per cycle. The ^3H to ^14C ratio was determined for partial and complete reactions and the KIEs were corrected to 0% hydrolysis by the equation: […]
where f is the fraction of reaction progress and Rf and Ro are ratios of heavy to light isotope at partial and total completion of reaction, respectively.
Experimental kinetic isotope effects (KIEs) and commitment factors. […] To avoid kinetic complexity associated with the transition state analyses for reversible reactions, the KIEs for the human MTAP were measured on the physiologically irreversible reaction of arsenolysis. The products of arsenolysis are adenine and 5-methylthioribose 1-arsenate. Methylthioribose 1-arsenate is unstable and rapidly decomposes to form methylthioribose and arsenate.
Where ^T(V/K) is an observed tritium isotope effect, Cf is the forward commitment to catalysis. The intrinsic KIEs were obtained by correcting the observed KIEs (column 3, Table 1) for the forward commitment.

human MTAP [2] = target: T1, human MTAP; conditions: cited from earlier work; for kcat: human MTAP (Kung et al., 2005); for fold increase in Km relative to MTA: human MTAP
S. pneumoniae MTAN = S. pneumoniae MTAN (Streptococcus pneumoniae, UniProt Q8DQ16); conditions: S. pneumoniae MTAN (Singh et al., 2005a); cited from earlier work
S. pneumoniae MTAN, sequence (Q8DQ16 entry or part of it): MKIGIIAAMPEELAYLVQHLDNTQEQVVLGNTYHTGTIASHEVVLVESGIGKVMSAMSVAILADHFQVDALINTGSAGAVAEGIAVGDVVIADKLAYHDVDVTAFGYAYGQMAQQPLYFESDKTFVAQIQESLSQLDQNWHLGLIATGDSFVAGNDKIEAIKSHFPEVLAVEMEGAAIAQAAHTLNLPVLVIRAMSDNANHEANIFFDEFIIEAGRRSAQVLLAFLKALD

E. coli MTAN = E. coli MTAN (Escherichia coli, UniProt P0AF12); conditions: E. coli MTAN (Singh et al., 2005a); cited from earlier work
E. coli MTAN, sequence (P0AF12 whole entry): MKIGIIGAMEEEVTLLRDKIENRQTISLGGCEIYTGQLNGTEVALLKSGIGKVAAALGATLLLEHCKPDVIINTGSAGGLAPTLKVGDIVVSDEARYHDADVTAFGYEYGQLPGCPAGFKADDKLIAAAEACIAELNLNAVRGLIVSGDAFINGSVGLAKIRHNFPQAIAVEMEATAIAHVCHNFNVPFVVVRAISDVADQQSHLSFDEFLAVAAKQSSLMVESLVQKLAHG

human MTAP [3] = target: T1, human MTAP; experiment: Kinetic analysis with substrate analogues (kcat, Km); assay type: biochemical
Description: Kinetic analysis with substrate analogues provide additional evidence concerning the importance of the 3′-hydroxyl in catalysis (Kung et al., 2005). […] The formation of an oxyanion from ionization of the 3′-hydroxyl further stabilizes the positive charge at the anomeric carbon.

[3H][C@@]1(O)[C@H](O)[C@@H](CSC)O[C@H]1n1cnc2c(N)ncnc21 [[2′-^3H], [2′-^3H]MTA]
KIE (experimental) (human MTAP [1]): 1.063 ± 0.003
Intrinsic KIEs (human MTAP [1]): 1.076 ± 0.003
Intrinsic KIEs (human MTAP [1]; listed as 2′-^3H): 1.076

CSC[C@H]1O[C@@H](n2cnc3c(N)ncnc32)C[C@@H]1O [2′-deoxy MTA]
kcat (human MTAP [2]): 0.28 s⁻¹
fold increase in Km relative to MTA (human MTAP [2]): ~2 fold

[3H][C@]1(CSC)O[C@@H](n2cnc3c(N)ncnc32)[C@H](O)[C@@H]1O [[4′-^3H], [4′-^3H]MTA]
intrinsic 4′-^3H KIE (S. pneumoniae MTAN): 1.015
intrinsic 4′-^3H KIE (E. coli MTAN): 1.010
KIE (experimental) (human MTAP [1]): 1.037 ± 0.005
Intrinsic KIEs (human MTAP [1]): 1.045 ± 0.005
Intrinsic KIEs (human MTAP [1]; listed as 4′-^3H): 1.045

[3H]C1(n2cnc3c(N)ncnc32)OC(CSC)C(O)C1O (stereo not shown) [[1′-^3H], [1′-^3H]MTA]
KIE (experimental) (human MTAP [1]): 1.290 ± 0.003
Intrinsic KIEs (human MTAP [1]): 1.350 ± 0.003
Intrinsic KIEs (human MTAP [1]; listed as 1′-^3H): 1.35

CS[14CH2][C@H]1O[C@@H]([15n]2cnc3c(N)ncnc32)[C@H](O)[C@@H]1O [[9-^15N/5′-^14C]]
KIE (experimental) (human MTAP [1]): 1.031 ± 0.002^c
Intrinsic KIEs (human MTAP [1]): 1.037 ± 0.002
Intrinsic KIEs (human MTAP [1]; listed as 9-^15N): 1.037 and 1.036
Intrinsic KIEs (human MTAP [1]; listed as 9-^15N MTA): 1.037
Intrinsic KIEs (human MTAP [1]; listed as 15N9): 1.036

CSC[C@@H]1C[C@@H](O)[C@H](n2cnc3c(N)ncnc32)O1 [3′-deoxy MTA]
kcat (human MTAP [2]): 0.004 s⁻¹
fold increase in Km relative to MTA (human MTAP [2]): ~2 fold
fold decrease in kcat relative to MTA (human MTAP [3]): ~1000 fold

[3H]C([3H])(SC)[C@H]1O[C@@H](n2cnc3c(N)ncnc32)[C@H](O)[C@@H]1O [[5′-^3H], [5′-^3H]MTA]
KIE (experimental) (human MTAP [1]): 1.038 ± 0.001
Intrinsic KIEs (human MTAP [1]): 1.046 ± 0.001
Intrinsic KIEs (human MTAP [1]; listed as [5′-^3H2] MTA): 1.046

[3H]C([3H])([3H])SC[C@H]1O[C@@H](n2cnc3c(N)ncnc32)[C@H](O)[C@@H]1O [[Me-^3H], [methyl-^3H3]MTA]
KIE (experimental) (human MTAP [1]): 1.073 ± 0.002
Intrinsic KIEs (human MTAP [1]): 1.086 ± 0.002
Intrinsic KIEs (human MTAP [1]; listed as [Me-^3H3] MTA): 1.086

CSC[C@H]1O[14C@@H](n2cnc3c(N)ncnc32)[C@H](O)[C@@H]1O [[1′-^14C], [1′-^14C]MTA]
KIE (experimental) (human MTAP [1]): 1.025 ± 0.005^b
Intrinsic KIEs (human MTAP [1]): 1.030 ± 0.005
Intrinsic KIEs (human MTAP [1]; listed as 1′-^14C): 1.029
Intrinsic KIEs (human MTAP [1]; listed as 1′-^14C MTA): 1.029

Source: patent US20100062995A1, “Transition state structure of human 5'methylthioadenosine phosphorylase” (priority 2006, published 2010)
